Experimental data taken from PMC10287566, “Signaling-specific inhibition of the CB1 receptor for cannabis use disorder: phase 1 and phase 2a randomized trials” (Nature Medicine, 2023).

Key:
CD-1 Swiss male mice = experiment: i.v. self-administration of WIN55,212-2 in mice; assay type: in vivo
Experimental: Before the start of the self-administration sessions, mice were implanted under anesthesia with catheters into the right jugular vein. […] Mice were trained under a fixed ratio 1 (FR1) schedule of reinforcement.
Two-hour daily self-administration sessions were conducted 6 d per week for 18 d. Mice received corn oil vehicle (2 ml kg^–1) orally on days 9 and 10 to be habituated to the oral gavage procedure.

mice [1] = experiment: THC-induced impairment of long-term memory (object recognition); assay type: in vivo
mice [2] = experiment: Precipitated withdrawal in THC-dependent mice; assay type: in vivo; settings: highest dose tested […]
Experimental: From day 1 to days 4–5, mice were injected i.p. with vehicle or THC (20 mg kg^−1) twice per day. On the last day of treatment, mice in the THC group received rimonabant or AEF0117. All other animals received the respective vehicle. […] For the measure of precipitated withdrawal, mice were placed in a novel home cage, and a video camera was positioned in front of each cage to record behavior. Scoring was performed for 1 min every 5-min period. Two withdrawal signs were analyzed—paw tremors and head shaking—because they are the most common signs of THC withdrawal observed in mice[14].

volunteers with CUD = experiment: Phase 2a study, subjective effects of smoked cannabis (VAS, CRF); assay type: in vivo, human; settings: for reduction of cannabis' positive subjective effects compared to placebo: Phase 2a
Experimental: Participants, in groups of 3−4, completed two 5-d inpatient periods (first period ‘A’ and second period ‘B’) separated by a ≥ 14-d outpatient washout. During the two testing periods, participants received AEF0117 or matching placebo in counterbalanced order (two dosing sequences: AEF0117 first or placebo first). Participants took capsules at 9:00 each day and then smoked a controlled amount of cannabis (approximately 67 mg of THC smoked over 6 min) 3.5 h later (12:30). Ratings of the subjective effects of cannabis were done five times after cannabis administration (20 min, 40 min, 60 min, 90 min and 120 min after cannabis) using a VAS (0–100 mm). […] Participants were told that the cannabis strength could vary from day to day and between participants but that the cannabis they each received at 12:30 that day was the strength available for self-administration that day.
The primary endpoint measuring the good subjective effect of cannabis related to addiction was an ‘Intoxication’ subscale based on a cluster analysis of the 44-item VAS[22], comprising the arithmetic mean of two items: ‘I feel a Good Effect’ and ‘I feel High’[22]. The positive subjective effects of cannabis were further assessed by individual items on the Cannabis Rating Form (CRF)[23], where participants rated the cannabis that they had most recently smoked in terms of ‘Cannabis Cigarette Liking’ and ‘Felt Good Cannabis Effect’ (key secondary endpoints) using a VAS. Cannabis self-administration was evaluated by measuring the number of puffs purchased at each timepoint (key secondary endpoint).
Data from the first dose level were reviewed by the Data Safety Monitoring Board before ascending to the next dose level.
Ratings of subjective effects of cannabis were performed using multiple items from two different instruments: (1) the 44-item VAS[22] and (2) the CRF[23]. Both instruments used visual analog scales (from 0 mm to 100 mm) to measure subjective effects. […] The subscale of the 44-item VAS was initially named the ‘Good Cannabis Effect’ subscale. Before starting the statistical analysis, this subscale was renamed ‘Intoxication’ subscale to avoid confusion with a key secondary endpoint on the CRF labeled ‘Felt Good Cannabis Effect’.
On each study day (days 1–5), at approximately 12:30, participants received an experimenter-administered ‘sample’ of cannabis (two cannabis cigarettes of approximately 800 mg, 7% THC, provided by NIDA). They were guided by an investigator through smoking a total of six 5-s inhalations using a paced-puff smoking procedure, where inhalation duration, time spent holding smoke in the lungs and inter-puff interval were timed. […] To capture a full timecourse of cannabis effects, participants completed the 44-item VAS and a CRF at 12:50, 13:10, 13:30, 14:[…].
As specified in the SAP, the statistical analyses employed an MMRM analysis using the REML as estimation method and structured covariance matrix with compound symmetry; the model included as factors and covariates: sequence, dose, treatment, time and days as fixed effects and subject within sequence as random effect.
Based on the SAP, the following analytical steps depending on results of the various analyses were undertaken. The primary and key secondary endpoints were first analyzed with a global crossover MMRM analysis (using combined cohorts: 0.06 mg + 1 mg).

[3] = Self-administration of WIN 55,212-2, mice
[4] = global crossover, 0.06 mg, 20 min after THC
[5] = global crossover, 0.06 mg, 40 min after THC
[6] = global crossover, 0.06 mg, 60 min after THC
[7] = global crossover, 0.06 mg, 90 min after THC
[8] = global crossover, 0.06 mg, 105 min after THC
[9] = global crossover, 1 mg, 20 min after THC
[10] = global crossover, 1 mg, 40 min after THC
[11] = global crossover, 1 mg, 60 min after THC
[12] = global crossover, 1 mg, 90 min after THC
[13] = global crossover, 1 mg, 105 min after THC
[14] = parallel group (period A), 0.06 mg, 20 min after THC
[15] = parallel group (period A), 0.06 mg, 40 min after THC
[16] = parallel group (period A), 0.06 mg, 60 min after THC
[17] = parallel group (period A), 0.06 mg, 90 min after THC
[18] = parallel group (period A), 0.06 mg, 105 min after THC
[19] = parallel group (period A), 1 mg, 20 min after THC
[20] = parallel group (period A), 1 mg, 40 min after THC
[21] = parallel group (period A), 1 mg, 60 min after THC
[22] = parallel group (period A), 1 mg, 90 min after THC
[23] = parallel group (period A), 1 mg, 105 min after THC

SMILES: COc1ccc(CO[C@H]2CC[C@@]3(C)C(=CC[C@H]4[C@@H]5CC[C@H](C(C)=O)[C@@]5(C)CC[C@@H]43)C2)cc1 [AEF0117, 3β-(4-methoxybenzyloxy)pregn-5-en-20-one]
- % Inhibition (CD-1 Swiss male mice; [3]): 80%
- ID50 (CD-1 Swiss male mice; [3]): 5 µg/kg
- ID100 (CD-1 Swiss male mice; [3]): 15 µg/kg
- i.v. self-administration of WIN55,212-2 (CD-1 Swiss male mice; mice, 15 µg kg^−1 oral): significantly reduced
- THC's effects on long-term object recognition memory (mice [1]): inhibited
- % Inhibition (mice [1]; Impairment of long-term memory): 100%
- ID100 (mice [1]; Impairment of long-term memory): ≤ 5 µg/kg
- Overall effect: precipitated withdrawal in THC-dependent mice (mice [2]): No
- cannabis ratings (volunteers with CUD; 0.06 mg, parallel group analysis, period A): significant reduction
- 'Felt Good Cannabis Effect' item on the CRF (volunteers with CUD; 1 mg, global crossover MMRM): significantly reduced
- ratings on the 'Intoxication' subscale of the 44-item VAS (volunteers with CUD; 1 mg, global crossover MMRM): significantly reduced
- reduction of cannabis' positive subjective effects compared to placebo (volunteers with CUD; 0.06 mg): 19%
- reduction of cannabis' positive subjective effects compared to placebo (volunteers with CUD; 1 mg): 38%
- Cannabis cigarette liking item, mean (volunteers with CUD; [4]): 76.2 mm
- Felt good cannabis effect item, mean (volunteers with CUD; [4]): 77.9 mm
- Intoxication subscale, mean (volunteers with CUD; [4]): 63.7 mm
- Cannabis cigarette liking item, mean (volunteers with CUD; [5]): 74.9 mm
- Felt good cannabis effect item, mean (volunteers with CUD; [5]): 76.1 mm
- Intoxication subscale, mean (volunteers with CUD; [5]): 58.8 mm
- Cannabis cigarette liking item, mean (volunteers with CUD; [6]): 72.6 mm
- Felt good cannabis effect item, mean (volunteers with CUD; [6]): 72.7 mm
- Intoxication subscale, mean (volunteers with CUD; [6]): 53.9 mm
- Cannabis cigarette liking item, mean (volunteers with CUD; [7]): 73.5 mm
- Felt good cannabis effect item, mean (volunteers with CUD; [7]): 75.8 mm
- Intoxication subscale, mean (volunteers with CUD; [7]): 47.1 mm
- Cannabis cigarette liking item, mean (volunteers with CUD; [8]): 73.2 mm
- Felt good cannabis effect item, mean (volunteers with CUD; [8]): 75.0 mm
- Intoxication subscale, mean (volunteers with CUD; [8]): 44.4 mm
- Cannabis cigarette liking item, mean (volunteers with CUD; [9]): 61.7 mm
- Felt good cannabis effect item, mean (volunteers with CUD; [9]): 66.8 mm
- Intoxication subscale, mean (volunteers with CUD; [9]): 66.8 mm
- Cannabis cigarette liking item, mean (volunteers with CUD; [10]): 57.8 mm
- Felt good cannabis effect item, mean (volunteers with CUD; [10]): 62.4 mm
- Intoxication subscale, mean (volunteers with CUD; [10]): 61.5 mm
- Cannabis cigarette liking item, mean (volunteers with CUD; [11]): 54.8 mm
- Felt good cannabis effect item, mean (volunteers with CUD; [11]): 58.0 mm
- Intoxication subscale, mean (volunteers with CUD; [11]): 57.2 mm
- Cannabis cigarette liking item, mean (volunteers with CUD; [12]): 54.0 mm
- Felt good cannabis effect item, mean (volunteers with CUD; [12]): 56.1 mm
- Intoxication subscale, mean (volunteers with CUD; [12]): 48.2 mm
- Cannabis cigarette liking item, mean (volunteers with CUD; [13]): 54.4 mm
- Felt good cannabis effect item, mean (volunteers with CUD; [13]): 54.7 mm
- Intoxication subscale, mean (volunteers with CUD; [13]): 43.7 mm
- Cannabis cigarette liking item, mean (volunteers with CUD; [14]): 68.3 mm
- Felt good cannabis effect item, mean (volunteers with CUD; [14]): 73.0 mm
- Intoxication subscale, mean (volunteers with CUD; [14]): 57.1 mm
- Cannabis cigarette liking item, mean (volunteers with CUD; [15]): 65.5 mm
- Felt good cannabis effect item, mean (volunteers with CUD; [15]): 70.2 mm
- Intoxication subscale, mean (volunteers with CUD; [15]): 50.9 mm
- Cannabis cigarette liking item, mean (volunteers with CUD; [16]): 62.3 mm
- Felt good cannabis effect item, mean (volunteers with CUD; [16]): 65.7 mm
- Intoxication subscale, mean (volunteers with CUD; [16]): 44.4 mm
- Cannabis cigarette liking item, mean (volunteers with CUD; [17]): 61.8 mm
- Felt good cannabis effect item, mean (volunteers with CUD; [17]): 67.4 mm
- Intoxication subscale, mean (volunteers with CUD; [17]): 38.0 mm
- Cannabis cigarette liking item, mean (volunteers with CUD; [18]): 63.1 mm
- Felt good cannabis effect item, mean (volunteers with CUD; [18]): 68.2 mm
- Intoxication subscale, mean (volunteers with CUD; [18]): 37.8 mm
- Cannabis cigarette liking item, mean (volunteers with CUD; [19]): 63.9 mm
- Felt good cannabis effect item, mean (volunteers with CUD; [19]): 67.9 mm
- Intoxication subscale, mean (volunteers with CUD; [19]): 67.0 mm
- Cannabis cigarette liking item, mean (volunteers with CUD; [20]): 59.3 mm
- Felt good cannabis effect item, mean (volunteers with CUD; [20]): 60.6 mm
- Intoxication subscale, mean (volunteers with CUD; [20]): 58.9 mm
- Cannabis cigarette liking item, mean (volunteers with CUD; [21]): 54.5 mm
- Felt good cannabis effect item, mean (volunteers with CUD; [21]): 53.3 mm
- Intoxication subscale, mean (volunteers with CUD; [21]): 54.5 mm
- Cannabis cigarette liking item, mean (volunteers with CUD; [22]): 55.7 mm
- Felt good cannabis effect item, mean (volunteers with CUD; [22]): 50.7 mm
- Intoxication subscale, mean (volunteers with CUD; [22]): 45.5 mm
- Cannabis cigarette liking item, mean (volunteers with CUD; [23]): 55.9 mm
- Felt good cannabis effect item, mean (volunteers with CUD; [23]): 52.3 mm
- Intoxication subscale, mean (volunteers with CUD; [23]): 40.8 mm
